Literature values, collected in patent US10640803B2, “Methods for determining chemosensitivity and chemotoxicity” (priority 2013, dated 2020).

Tested on: CLL patients
Settings: caused the halt of the study

Compound: CC1(C)CCC(c2ccc(Cl)cc2)=C(CN2CCN(c3ccc(C(=O)NS(=O)(=O)c4ccc(N[C@H](CCN5CCOCC5)CSc5ccccc5)c(S(=O)(=O)C(F)(F)F)c4)cc3)CC2)C1 [ABT-263]
- adverse event in the study: occurrence of tumor lysis syndrome
